Consider two molecules from patent US11193941B2, “Method for evaluating condition of skin dryness” (KAO CORPORATION, priority 2014, dated 2021).

The assay concerns AGR2 mRNA. Description: Promoting action of humectant on AGR2 gene expression level in normal human epidermal cells (Real-Time PCR). It counts as cell-based. Particulars: NHEK, 72 hour culture; for AGR2 expression compared to that in the control: result in words; for AGR2 expression level (relative value): normalized with RPLP0, control (99.5% EtOH solvent) = 1, n=2. As for the experimental part:
The normal human epidermal cells (NHEK) were cultured under conditions of 37° C. and 5% CO2 using EpiLife (Registered Trademark) (purchased from Kurabo). The cells were seeded in a 12 well plate at 1×10^5 cells and cultured for 48 hours, and the medium was then exchanged with a serum-free medium. Further, vitamin D3, which is a known agent for ameliorating dry skin, (99.5% ethanol solution, final concentration 1 nM or 10 nM) (Nutrients, 4(9):1213-8, 2012), eucalyptus extract (50% ethanol solution, final concentration 0.001%) (J Cosmet Dermatol, 12(1):3-11, 2013), macrocarpal, which is a major physiologically active substance of eucalyptus extract (50% ethanol solution, final concentration 10 nM) (Int J Cosmet Sci, 34(1):17-22, 2012), or 99.5% ethanol or 50% ethanol as a control was added to the medium. After 72 hour culture, total RNA was extracted from cells using RNeasy (Registered Trademark) Mini Kit (QIAGEN). The concentration of total RNA was measured and a reverse transcription reaction was carried out using a constant amount of total RNA. High capacity RNA-to-cDNA kit (Applied Biosystems) was used for the reverse transcription reaction. The expression of AGR2 mRNA was quantitatively determined from the obtained cDNA by Real-Time PCR. Taqman (Registered Trademark) Probe (AGR2: Hs00180702_m1, Applied Biosystems) was used for quantitative determination, and PRISM 7500 (Applied Biosystems) was used for detection and quantitative determination. PCR was carried out in a 20 μL reaction system and the amplification conditions were a denaturation reaction at 95° C. for 15 seconds, annealing at 60° C. for a minute and an elongation reaction. The mRNA expression level was normalized with the expression level of RPLP0 (Hs99999902_m1, Applied Biosystems) and shown as a relative value in the case where the mean expression level of AGR2 in a control (only 99.5% EtOH solvent) was considered as 1.

Turning to `C=C1CC[C@H](O)C/C1=C/C=C1\CCC[C@]2(C)[C@@H]([C@H](C)CCCC(C)C)CC[C@@H]12` [Vitamin D3, vitamin D3], the “AGR2 expression compared to that in the control” value is on record as “increased”. Further, the “AGR2 expression level (relative value)” value (final concentration 1 nM) was determined as 1.05. Besides, for the setting “final concentration 10 nM”, the “AGR2 expression level (relative value)” value was 1.17.

In the case of macrocarpal, the “AGR2 expression compared to that in the control” value is recorded as “increased”. Also, the “AGR2 expression level (relative value)” value (final concentration 10 nM) was 1.17.
